# Data published in US5328913A, “Minoxidil analogs as inhibitors of cell proliferation and lysyl hydroxylase” (priority 1992, dated 1994).
# What was measured:
# [1] = tested on: prolyl hydroxylase; experiment: Prolyl hydroxylase activity in fibroblasts treated with minoxidil and its hydroxy derivatives (Example 3); format: cell-based, human; conditions: 1 mM
# Description: (§1) Culture of human skin fibroblasts derived from an apparently normal adult were grown to confluent densities in Dulbecco's modified Eagle's medium supplemented with 10% (v/v) fetal calf serum. Thereafter, the medium was replaced with medium supplemented with 0.5% dialyzed fetal calf serum. The cultures were treated for 72 hr with 1 mM minoxidil, 3'- hydroxyminoxidil,or 4'-hydroxyminoxidil (Upjohn) dissolved in aqueous medium. In some experiments, minoxodil was dissolved in 95% (v/v) ethanol; the final concentration of minoxidil was 0.3 mM and that of ethanol was 0.3%. Cultures treated with ethanol only served as the control.
# During the last 3 hr of treatment, cultures received 100 μM ascorbic acid. The enzyme activities in extracts of treated cells were measured by tritium-release assays described previously (Murad and Pinnell, J. Biol. Chem. 262:11,973 (1987)).
# [2] = tested on: Collagen Synthesis in Human Skin Fibroblasts; experiment: Collagen synthesis in human skin fibroblasts; format: cell-based; conditions: 1 mM, 72 hr
# Description: as §1, with “[…].” for “the final concentration of minoxidil was 0.3 mM and that of ethanol was 0.3%.”
# During the last 6 hr of treatment, cultures were labeled with 20 μCi of L-[2,3-^3 H]proline in 1 ml of medium supplemented with 100 μM ascorbic acid. The amount of proline radioactivity incorporated into collagen in the medium and cells combined was measured after digestion with a bacterial collagenase, essentially as described previously (Freiberger et al, J. Invest. Dermatol. 75:425 (1980)).
# [3] = tested on: Lysyl Hydroxylations in Human Skin Fibroblasts; experiment: Hydroxylation of lysine residues in type I procollagen (Hyl/Lys); format: cell-based; conditions: 0.3 M, 72 hr
# [4] = tested on: lysyl hydroxylase; experiment: Lysyl hydroxylase activity in extracts of treated human skin fibroblasts (Example 2, pyridine, triazine and N-alkyl analogs); format: cell-based
# Description: Cells were treated for 72 hr with minoxidil or its triazine analog at the indicated concentrations. The enzyme activities in extracts of treated cells were measured by tritium release assays (Murad and Pinnell, J. Biol. Chem. 262:11,973 (1987)) and are expressed as a percentage of zero-concentration values. PH, prolyl hydroxylase; LH, lysyl hydroxylase.
# Cells were treated for 72 hr with various concentrations of minoxidil or its N-alkyl analogs as indicated. The enzyme activity in extracts of treated cells was measured by tritium release assays (Murad and Pinnell, J. Biol. Chem. 262:11,973 (1987)) and is expressed as a percentage of zero-concentration value. The minoxidil curve is reproduced from FIG. 4.
# Cultures of human skin fibroblast (1.5×10^6 cells) were seeded onto 100-mm plates and incubated at 37° in Dulbecco's modified Eagle's medium supplemented with 20% calf serum. After 24 hr, the medium was replaced with medium supplemented with 0.5% heat-inactivated dialyzed calf serum. The incubation was continued for an additional 72 hr in the presence of 0.1-2 μM minoxidil analogs dissolved in 0.12N HCl; the final concentration of HCl was 0.0012N or 0.0024N. Cells treated with HCl only served as control. During the last 3 hr of incubation, cells received […] ascorbic acid to ensure complete hydroxylation of the polypeptide precursors of procollagen (Murad et al, J. Invest. Dermatol. 75:404 (1980)). At the end of the incubation period, cells were harvested by trypsinization and disrupted by sonication in a buffered medium (Murad et al, J. Biol. Chem. 262:11,973 (1987)).
# Lysyl hydroxylase activity in extracts of treated cells was measured with an underhydroxylated procollagen substrate (Murad et al, J. Biol. Chem. 262:11,973 (1987)), which was prepared by labeling cultures of human skin fibroblasts with L-[4,5-^3 H]lysine in the presence of an iron chelator α,α'-dipyridyl (Murad and Pinnell, Conn. Tiss. Res. 13:181 (1985)). The amount of tritium released was quantitated as ^3 HO after vacuum distillation . Prolyl hydroxylase activity was similarly measured with an underhydroxylated procollagen substrate containing L-[4-^3 H]proline (Murad and Pinnell, J. Biol. Chem. 262:11973 (1987); Murad and Pinnell, Conn. Tiss. Res. 13:181 (1985)). The enzyme activities are based on a unit of soluble cell protein. The protein content of cell extracts was determined by a dye-binding techniques using Bio-Rad reagents (Bradford, Anal. Biochem. 72:248 (1976)).
# Cells were treated for 72 hr with 1 mM minoxidil or its
# structural analogs as indicated. The enzyme activity in extracts
# of treated cells was measured by a tritium-release assay and is
# expressed as a percentage of HCl-treated control.
compound,measurement,setting,value
Nc1cc(N2CCCCC2)nc(N)[n+]1[O-] [Minoxidil],prolyl hydroxylase activity (in words),[1]; 72 hr,remained unchanged
same,Prolyl Hydroxylase Activity,[1]; 72 hr (Table VI),29446 cpm ^3 H2 O/mg protein
same,Prolyl Hydroxylase Activity,[1]; 72 hr (description table),29446 cpm^3 H2 O/mg protein
same,% Collagen Synthesized,[2]; mean ± SD of duplicate analysis of two cultures (Table VII),6.6 ± 0.7%
same,inhibition at 1000 µM,"[2]; Homo sapiens, Skin fibroblast, compared with control, read-out: reduction of synthesis of collagen relative to that of total protein",25%
same,Hyl/Lys,"[3]; type I procollagen chains isolated by gel electrophoresis, mean ± range (Table IV)",0.08 ± 0.02
same,Hyl/Lys,[3]; type I procollagen isolated by column chromatography (Table IV),0.17
same,decrease of the activity of lysyl hydroxylase,"[4]; 1 mM, 72 hr",73%
same,Lysyl hydroxylase activity (%),"[4]; 1 mM, 72 hr, % of HCl-treated control (Table III)",27%
same,IC50,"[4]; 72 hr (FIG. 4, FIG. 5), read-out: concentration giving 50% inhibition (lysyl hydroxylase)",200 µM
